Several values for one entry are separate records, joined by “and”; a condition that tells them apart may be missing. Identical values can stand only once. Toxic doses and inconclusive results are not listed. No stated cut-off is given here; in the data, active means T/C of 150% or more; inactive means T/C below 125%.
Tested on: L1210 leukemia ip in BDF1 mice, survival T/C
Assay: NCI In Vivo Anticancer Drug Screen. Data for tumor model L1210 Leukemia (intraperitoneal) in B6D2F1 (BDF1) mice
Conditions: endpoint: mean survival time, higher = longer survival
Method in brief: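 Value reflects the ratio of survival in compound-treated mice to survival in vehicle-treated controls, with both groups carrying the same transplanted tumor.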

[1] = dose: 100.0 mg/kg/injection, schedule: Q01DX001 (ip), vehicle: saline with Tween-80
[2] = dose: 200.0 mg/kg/injection, schedule: Q01DX001 (ip), vehicle: saline with Tween-80
[3] = dose: 400.0 mg/kg/injection, schedule: Q01DX001 (ip), vehicle: saline with Tween-80
[4] = dose: 100.0 mg/kg/injection, schedule: Q01DX009 (ip), vehicle: Klucel (hydroxypropylcellulose) (HPC)
[5] = dose: 200.0 mg/kg/injection, schedule: Q01DX009 (ip), vehicle: Klucel (hydroxypropylcellulose) (HPC)
[6] = dose: 400.0 mg/kg/injection, schedule: Q01DX009 (ip), vehicle: Klucel (hydroxypropylcellulose) (HPC)
[7] = dose: 100.0 mg/kg/injection, schedule: Q04DX003 (ip), vehicle: saline with Tween-80
[8] = dose: 400.0 mg/kg/injection, schedule: Q04DX003 (ip), vehicle: saline with Tween-80
[9] = dose: 100.0 mg/kg/injection, schedule: Q01DX009 (ip), vehicle: saline with Tween-80
[10] = dose: 200.0 mg/kg/injection, schedule: Q01DX009 (ip), vehicle: saline with Tween-80
[11] = dose: 400.0 mg/kg/injection, schedule: Q01DX009 (ip), vehicle: saline with Tween-80
[12] = dose: 100.0 mg/kg/injection, schedule: Q01DX001 (ip), vehicle: saline
[13] = dose: 200.0 mg/kg/injection, schedule: Q01DX001 (ip), vehicle: saline
[14] = dose: 100.0 mg/kg/injection, schedule: Q04DX003 (ip), vehicle: Klucel (hydroxypropylcellulose) (HPC)

Measured: T/C

CCCCCCCCOC(=O)c1[nH]cnc1/N=N\N(C)C
inactive: dose: 45.0 mg/kg/injection, schedule: Q01DX015 (ip), vehicle: other 103 % of control | dose: 88.0 mg/kg/injection, schedule: Q01DX001 (ip), vehicle: other 96 % of control | dose: 100.0 mg/kg/injection, schedule: Q01DX001 (ip), vehicle: other 102 % of control | dose: 133.0 mg/kg/injection, schedule: Q01DX001 (ip), vehicle: other 88 % of control | dose: 133.0 mg/kg/injection, schedule: Q01DX009 (ip), vehicle: other 101 % of control | dose: 180.0 mg/kg/injection, schedule: Q01DX015 (ip), vehicle: other 122 % of control | dose: 200.0 mg/kg/injection, schedule: Q01DX001 (ip), vehicle: other 109 % of control and 90 % of control | dose: 200.0 mg/kg/injection, schedule: Q01DX009 (ip), vehicle: other 95 % of control | dose: 300.0 mg/kg/injection, schedule: Q01DX001 (ip), vehicle: other 100 % of control | dose: 300.0 mg/kg/injection, schedule: Q01DX009 (ip), vehicle: other 100 % of control | dose: 400.0 mg/kg/injection, schedule: Q01DX001 (ip), vehicle: other 104 % of control | dose: 450.0 mg/kg/injection, schedule: Q01DX009 (ip), vehicle: other 97 % of control

O=S(=O)(O)c1ccc(S)cc1
inactive: dose: 75.0 mg/kg/injection, schedule: Q01DX001 (ip), vehicle: other 117 % of control

FC(F)(F)Cc1cccc(C(F)(F)F)c1
inactive: [1] 113 % of control | [2] 103 % of control | [3] 105 % of control

CN(C)c1ccc(/C=N/NC(=O)c2ccccc2NC(=O)c2ccc(Cl)cc2)c(Cl)c1
inactive: [4] 95 % of control | [5] 90 % of control | [6] 90 % of control

c1cc2c3c(c1)nc(CCc1nc4cccc5c4n1CCC5)n3CCC2
inactive: dose: 25.0 mg/kg/injection, schedule: Q04DX003 (ip), vehicle: saline with Tween-80 101 % of control | dose: 50.0 mg/kg/injection, schedule: Q04DX003 (ip), vehicle: saline with Tween-80 95 % of control | [7] 93 % of control and 87 % of control | [8] 87 % of control

O=C1c2ccccc2C(=O)N1CN1CCOCC1
inactive: [1] 105 % of control | [2] 94 % of control | [3] 98 % of control

CN(C)c1ccc(C(=O)NO)cc1
inactive: [4] 97 % of control | [5] 105 % of control | [6] 100 % of control

COC(=O)c1cc(Cl)ccc1O
inactive: dose: 37.5 mg/kg/injection, schedule: Q04DX003 (ip), vehicle: Klucel (hydroxypropylcellulose) (HPC) 100 % of control | dose: 75.0 mg/kg/injection, schedule: Q04DX003 (ip), vehicle: Klucel (hydroxypropylcellulose) (HPC) 100 % of control | dose: 150.0 mg/kg/injection, schedule: Q04DX003 (ip), vehicle: Klucel (hydroxypropylcellulose) (HPC) 92 % of control

Cc1ccc(Cl)c2ccccc12
inactive: dose: 12.5 mg/kg/injection, schedule: Q01DX009 (ip), vehicle: saline with Tween-80 106 % of control | dose: 25.0 mg/kg/injection, schedule: Q01DX009 (ip), vehicle: saline with Tween-80 104 % of control | dose: 50.0 mg/kg/injection, schedule: Q01DX009 (ip), vehicle: saline with Tween-80 106 % of control | [9] 93 % of control | [10] 90 % of control | [11] 101 % of control

CN1CCc2c3n(c4ccccc24)C(=O)CCC31 (centres undefined)
inactive: dose: 6.25 mg/kg/injection, schedule: Q01DX009 (ip), vehicle: saline 106 % of control | dose: 12.5 mg/kg/injection, schedule: Q01DX009 (ip), vehicle: saline 101 % of control | dose: 25.0 mg/kg/injection, schedule: Q01DX009 (ip), vehicle: saline 104 % of control

CCC(C)(CCC(C)C)c1ccncc1 (centres undefined)
inactive: [12] 106 % of control | [13] 98 % of control

O=S(=O)(O)c1cc(O)c(S(=O)(=O)O)cc1O
inactive: dose: 100.0 mg/kg/injection, schedule: Q04DX003 (ip), vehicle: saline 98 % of control | dose: 200.0 mg/kg/injection, schedule: Q04DX003 (ip), vehicle: saline 92 % of control | dose: 400.0 mg/kg/injection, schedule: Q04DX003 (ip), vehicle: saline 110 % of control

CCCCC(=C/C(C)(C)C)/C(=C/C(C)(C)C)CCCC
inactive: dose: 150.0 mg/kg/injection, schedule: Q01DX009 (ip), vehicle: saline 88 % of control | dose: 300.0 mg/kg/injection, schedule: Q01DX009 (ip), vehicle: saline 88 % of control

Cc1coc2c1CC1(C)C(CCC(O)C1C)C2 (centres undefined)
inactive: [12] 97 % of control | [13] 100 % of control | dose: 400.0 mg/kg/injection, schedule: Q01DX001 (ip), vehicle: saline 103 % of control

CN(C)C=Nc1cc2c(cc1Br)-c1ccccc1C2=O
inactive: [4] 101 % of control | [5] 95 % of control | [6] 93 % of control

O=C(Nc1cc(S(=O)(=O)F)ccc1Cl)c1ccc2ccccc2c1O
inactive: [4] 97 % of control | [14] 91 % of control | [5] 101 % of control | dose: 200.0 mg/kg/injection, schedule: Q04DX003 (ip), vehicle: Klucel (hydroxypropylcellulose) (HPC) 98 % of control | [6] 95 % of control | dose: 400.0 mg/kg/injection, schedule: Q04DX003 (ip), vehicle: Klucel (hydroxypropylcellulose) (HPC) 104 % of control

CCCCCCCCCCCCCCCCCC[n+]1cccc(C(=O)N2CCOCC2)c1
inactive: dose: 2.0 mg/kg/injection, schedule: Q01DX009 (ip), vehicle: Klucel (hydroxypropylcellulose) (HPC) 97 % of control | dose: 4.0 mg/kg/injection, schedule: Q01DX009 (ip), vehicle: Klucel (hydroxypropylcellulose) (HPC) 110 % of control | dose: 8.0 mg/kg/injection, schedule: Q01DX009 (ip), vehicle: Klucel (hydroxypropylcellulose) (HPC) 98 % of control | dose: 12.5 mg/kg/injection, schedule: Q04DX003 (ip), vehicle: Klucel (hydroxypropylcellulose) (HPC) 88 % of control | dose: 16.0 mg/kg/injection, schedule: Q01DX009 (ip), vehicle: Klucel (hydroxypropylcellulose) (HPC) 104 % of control | dose: 25.0 mg/kg/injection, schedule: Q04DX003 (ip), vehicle: Klucel (hydroxypropylcellulose) (HPC) 96 % of control | dose: 32.0 mg/kg/injection, schedule: Q01DX009 (ip), vehicle: Klucel (hydroxypropylcellulose) (HPC) 90 % of control | dose: 50.0 mg/kg/injection, schedule: Q04DX003 (ip), vehicle: Klucel (hydroxypropylcellulose) (HPC) 93 % of control | [14] 92 % of control

CCOc1nc(N)nc2c1-c1ccc(OC)cc1CC2
inactive: dose: 100.0 mg/kg/injection, schedule: Q04DX002 (ip), vehicle: saline with Tween-80 91 % of control | dose: 200.0 mg/kg/injection, schedule: Q04DX002 (ip), vehicle: saline with Tween-80 102 % of control | dose: 400.0 mg/kg/injection, schedule: Q04DX002 (ip), vehicle: saline with Tween-80 87 % of control

CC(O)c1cccc([N+](=O)[O-])c1 (centres undefined)
inactive: [9] 104 % of control | [10] 94 % of control | [11] 90 % of control

O=S(=O)(O)CS(=O)(=O)O.[Ag]
inactive: dose: 5.0 mg/kg/injection, schedule: Q01DX001 (ip), vehicle: saline 101 % of control | dose: 10.0 mg/kg/injection, schedule: Q01DX001 (ip), vehicle: saline 95 % of control | dose: 20.0 mg/kg/injection, schedule: Q01DX001 (ip), vehicle: saline 97 % of control | dose: 40.0 mg/kg/injection, schedule: Q01DX001 (ip), vehicle: saline 97 % of control

O=c1nc(NO)ccn1C1CCCCO1 (centres undefined)
inactive: dose: 100.0 mg/kg/injection, schedule: Q01DX001 (ip), vehicle: carboxymethylcellulose (CMC) 95 % of control | dose: 200.0 mg/kg/injection, schedule: Q01DX001 (ip), vehicle: carboxymethylcellulose (CMC) 95 % of control | dose: 400.0 mg/kg/injection, schedule: Q01DX001 (ip), vehicle: carboxymethylcellulose (CMC) 95 % of control

O=C1CCCC(=O)N1.[Tl]
inactive: dose: 3.12 mg/kg/injection, schedule: Q04DX003 (ip), vehicle: water 108 % of control | dose: 6.25 mg/kg/injection, schedule: Q04DX003 (ip), vehicle: water 102 % of control | dose: 12.5 mg/kg/injection, schedule: Q04DX003 (ip), vehicle: water 96 % of control

CCC(CC)(CC)OC(=O)NS(=O)(=O)c1ccc(Cl)cc1
inactive: dose: 100.0 mg/kg/injection, schedule: Q01DX009 (ip), vehicle: acetone 107 % of control | [7] 120 % of control | dose: 200.0 mg/kg/injection, schedule: Q04DX003 (ip), vehicle: saline with Tween-80 104 % of control | [8] 109 % of control
